Read-outs that look alike come from different tables or passages of the source.
Experiments:
STIP-1 cells = assay: cells; type: cell-based, Bester (Huso huso X Acipenser ruthenus); conditions: for EC50: read-out: EC50 (toxicity concentration value which effects on 50% of the cells); for toxicity ranking to the STIP-1 cells: within the tested series (nine heavy metals / twelve phenols)
Description: (§1) The Alamar Blue assay is one of the bioassay methods being developed to measure the cellular metabolisms of the animal cells or the like. The Alamar Blue pigment is an oxidation-reduction pigment which should be incorporated in a cell for its reduction. The Alamar Blue pigment has the characteristics to be changed from an oxidation type (non-fluorescence/blue) to a reduction type (fluorescence/red) by the reduction reaction of the respiratory metabolism system done in mitochondria. If the cellular metabolism is normal, the reduction reaction proceeds in normal. On the other hand, if the cellular metabolism becomes abnormal, the oxidation type is remained as it is. Therefore, the abnormality of a cellular metabolism can be determined by measuring the change in color. Furthermore, the measurement of a cellular metabolism may be based on the fluorescence and the light absorption. In this case the fluorescence is monitored by an excitation wavelength of 530 nm to 560 nm and a detection wavelength of 590 nm, and the light absorption is monitored at wavelengths of 570 nm and 600 nm.
Cells were cultured in a 96-well microtiter plate in a CO2 incubator (air atmosphere) at 20° C. until it became confluent. The culture was performed using a culture medium prepared by adding 10% fetal bovine serum (FBS) (manufactured by Gibco Co., Ltd.), penicillin (10 unit/ml) and streptomycin (50 μg/ml) in a Leibovitz's L15 culture medium (manufactured by Gibco Co., Ltd.).
A 0.2M aqueous solution of a specimen (cadmium chloride, CdCl2.2H2O) was prepared and was then sterilized by passing through a filter of 0.2 μm in pore size to be preserved at 4° C. […] For a comparison example, the culture medium in the absence of the specimen was inoculated in a well. After 24 hours passed, an Alamar Blue pigment was added and an additional culture was continued for further 24 hours.
Subsequently, by using a microplate reader, the light absorbance of each well was measured using two wavelengths (570 nm and 600 nm). The inhibition value of a cellular metabolism with the cadmium aqueous solution was measured as a reduction rate of a well (a sample) inoculated with a cadmium aqueous solution to a well only containing the culture medium as a control. The calculation was performed using the following equation.
A=sample well (A570 nm−A600 nm)−blank well (A570 nm−A600 nm), and
B=control well (A570 nm−A600 nm)−blank well (A570 nm−A600 nm).
In addition, (A/B)×100 means a survival rate (%) of cells.
(B) Evaluations of toxicities of eight kinds of heavy metals except of cadmium to the STIP-1 cells were performed by the same way as described in the above (A).

STIP-3 cells = assay: Cytotoxic test using STIP-3 cells, Alamar Blue assay; type: cell-based, Bester (Huso huso X Acipenser ruthenus); conditions: 20° C., 24 hours with specimen, then Alamar Blue for further 24 hours, read-out: EC50 (toxicity concentration value which effects on 50% of the cells)
Description: as §1
Cells were cultured in a 96-well microtiter plate in a CO2 incubator (air atmosphere) at 20° C. until it became confluent. […]
Subsequently, by using a microplate reader, the light absorbance of each well was measured using two wavelengths (570 nm and 600 nm). […]

[1] = Huso huso, STIP-1 cells, 20° C., 24 hours with specimen, then Alamar Blue for further 24 hours
[2] = STIP-1 cells, 20° C., 24 hours with specimen, then Alamar Blue for further 24 hours

Compound	EC50 (STIP-1 cells; [1]) [µM]	EC50 (STIP-1 cells; [2]) [µM]	further results
Oc1cc(Cl)c(Cl)cc1Cl [2,4,5-trichlorophenol]	7		toxicity ranking to the STIP-1 cells (STIP-1 cells): strongest toxicity
Oc1c(Cl)c(Cl)c(Cl)c(Cl)c1Cl [Pentachlorophenol]	90		
[Cl-].[Cl-].[Co+2] [CoCl2.6H2O]		2200	
Oc1cc(Cl)ccc1Cl [2,5-dichlorophenol]	56		
Oc1cccc(Cl)c1Cl [2,3-dichlorophenol]	80		
[Cl][Ni][Cl] [NiCl2.6H2O]			EC50 (STIP-1 cells): > 10000 µM
[Cl][Cd][Cl] [cadmium, cadmium chloride]		89	EC50 (STIP-3 cells): 100 µM
O=[N+]([O-])[O-].O=[N+]([O-])[O-].[Pb+2] [Pb(NO3)2]		3300	
Oc1ccc(Cl)cc1Cl [2,4-dichlorophenol]	55		
Tributyl tin		0.9	EC50 (STIP-1 cells; STIP-1 cells, 20° C., 24 hours with specimen, then Alamar Blue for further 24 hours, listed as tributyl tin): 0.9 µM; toxicity at a concentration lower than other heavy metals (STIP-1 cells; STIP-1 cells, compared with other heavy metals): about 100 times; toxicity ranking to the STIP-1 cells (STIP-1 cells): strongest toxicity
Oc1ccccc1 [Phenol]			EC50 (STIP-1 cells; Huso huso, 24 h): 8600 µM
Oc1c(Cl)cc(Cl)c(Cl)c1Cl [2,3,4,6-tetrachlorophenol]	9		
HgCl2			EC50 (STIP-1 cells): 85 µM
Oc1ccc(Cl)cc1 [p-chlorophenol]	800		
O=S(=O)([O-])[O-].[Zn+2] [ZnSO4.7H2O]		400	
Oc1c(Cl)cccc1Cl [2,6-dichlorophenol]	900		
O.O.O.O.[Cl][Mn][Cl] [MnCl2.4H2O]			toxicity to the STIP-1 cells more than that to the culture cells of other fish origins (STIP-1 cells): about 10 times; EC50 (STIP-1 cells): 400 µM
Oc1ccc(Cl)c(Cl)c1 [3,4-dichlorophenol]	30		
O=[N+]([O-])c1ccc(O)cc1 [p-nitrophenol]	350		
[Cl][Cu][Cl] [CuCl2.2H2O]		1320	

From patent US7217564B2, “Cytotoxic assay and new established cell line of sturgeon origin” (priority 2002, dated 2007)
